Measured values published in publication PMC2949283 (The Biochemical journal, 2009).

How the values were obtained:
Y133A HuAChE = Y133A HuAChE (Homo sapiens, UniProt P22303, Y164A); assay: HuAChE inhibition kinetics; assay type: biochemical; conditions: Y133A HuAChE
F338A HuAChE = F338A HuAChE (Homo sapiens, UniProt P22303, F369A); assay: HuAChE inhibition kinetics; assay type: biochemical; conditions: F338A HuAChE
Y341A HuAChE = Y341A HuAChE (Homo sapiens, UniProt P22303, Y372A); assay: HuAChE inhibition kinetics; assay type: biochemical; conditions: Y341A HuAChE
Sequence of Y341A HuAChE (P22303 32-614 Y372A): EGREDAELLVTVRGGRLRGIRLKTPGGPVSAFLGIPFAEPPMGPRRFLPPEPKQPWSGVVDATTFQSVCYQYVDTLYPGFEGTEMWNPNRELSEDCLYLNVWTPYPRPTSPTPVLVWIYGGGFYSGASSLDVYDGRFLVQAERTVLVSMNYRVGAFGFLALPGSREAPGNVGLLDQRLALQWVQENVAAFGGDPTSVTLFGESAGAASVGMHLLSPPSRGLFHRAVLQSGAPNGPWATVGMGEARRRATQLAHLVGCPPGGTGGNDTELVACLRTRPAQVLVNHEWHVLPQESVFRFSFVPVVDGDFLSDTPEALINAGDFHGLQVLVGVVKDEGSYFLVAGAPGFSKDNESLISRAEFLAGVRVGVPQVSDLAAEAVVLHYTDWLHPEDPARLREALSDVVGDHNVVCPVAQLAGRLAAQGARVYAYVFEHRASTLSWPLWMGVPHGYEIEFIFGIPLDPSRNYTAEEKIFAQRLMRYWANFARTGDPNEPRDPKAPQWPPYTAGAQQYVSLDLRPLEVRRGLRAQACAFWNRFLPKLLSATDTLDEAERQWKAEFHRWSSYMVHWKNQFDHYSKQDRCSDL

Y72N/Y124Q/W286A HuAChE = Y72N/Y124Q/W286A HuAChE (Homo sapiens, UniProt P22303, W317A/Y103N/Y155Q); assay: HuAChE inhibition kinetics; assay type: biochemical
Sequence of Y72N/Y124Q/W286A HuAChE (P22303 32-614 Y103N/Y155Q/W317A): as the sequence (P22303 32-614 Y372A) above, with Y72N, Y124Q, W286A, A341Y counted along it

[1] = target: Y72N/Y124Q/W286A/ F295L/F297V/Y337A HuAChE (Homo sapiens, UniProt P22303, F326L/F328V/W317A/Y103N/Y155Q/Y368A); assay: HuAChE inhibition kinetics; assay type: biochemical; conditions: Y72N/Y124Q/W286A/F295L/F297V/Y337A HuAChE
Sequence of Y72N/Y124Q/W286A/ F295L/F297V/Y337A HuAChE (P22303 32-614 Y103N/Y155Q/W317A/F326L/F328V/Y368A): as the sequence (P22303 32-614 Y372A) above, with Y72N, Y124Q, W286A, F295L, F297V, Y337A, A341Y counted along it

W86A HuAChE = W86A HuAChE (Homo sapiens, UniProt P22303, W117A); assay: HuAChE inhibition kinetics; assay type: biochemical; conditions: W86A HuAChE
Sequence of W86A HuAChE (P22303 32-614 W117A): as the sequence (P22303 32-614 Y372A) above, with W86A, A341Y counted along it

F295A HuAChE = F295A HuAChE (Homo sapiens, UniProt P22303, F326A); assay: HuAChE inhibition kinetics; assay type: biochemical; conditions: F295A HuAChE
Sequence of F295A HuAChE (P22303 32-614 F326A): as the sequence (P22303 32-614 Y372A) above, with F295A, A341Y counted along it

HuBChE-Wild Type = HuBChE-Wild Type (Homo sapiens, UniProt P06276); assay: HuBChE inhibition kinetics; assay type: biochemical; conditions: HuBChE-Wild Type
Sequence of HuBChE-Wild Type (P06276 29-602): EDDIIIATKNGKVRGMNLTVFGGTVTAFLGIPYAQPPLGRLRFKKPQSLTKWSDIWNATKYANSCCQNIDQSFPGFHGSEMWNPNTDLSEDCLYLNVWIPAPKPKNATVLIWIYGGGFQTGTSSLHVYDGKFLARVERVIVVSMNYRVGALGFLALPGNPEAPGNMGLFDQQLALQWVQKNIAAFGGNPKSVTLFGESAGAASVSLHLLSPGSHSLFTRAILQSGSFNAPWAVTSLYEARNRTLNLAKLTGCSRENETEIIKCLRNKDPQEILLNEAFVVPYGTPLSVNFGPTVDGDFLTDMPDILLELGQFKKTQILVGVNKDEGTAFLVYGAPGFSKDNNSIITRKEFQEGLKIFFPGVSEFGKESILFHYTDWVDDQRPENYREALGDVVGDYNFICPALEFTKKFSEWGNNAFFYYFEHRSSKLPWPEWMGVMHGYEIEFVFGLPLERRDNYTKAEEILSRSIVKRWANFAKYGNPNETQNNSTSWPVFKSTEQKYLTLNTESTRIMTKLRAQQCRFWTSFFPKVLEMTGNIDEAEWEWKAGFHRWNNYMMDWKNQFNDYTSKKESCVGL

Y124A HuAChE = Y124A HuAChE (Homo sapiens, UniProt P22303, Y155A); assay: HuAChE inhibition kinetics; assay type: biochemical
Sequence of Y124A HuAChE (P22303 32-614 Y155A): as the sequence (P22303 32-614 Y372A) above, with Y124A, A341Y counted along it

W86F HuAChE = W86F HuAChE (Homo sapiens, UniProt P22303, W117F); assay: HuAChE inhibition kinetics; assay type: biochemical; conditions: W86F HuAChE
Sequence of W86F HuAChE (P22303 32-614 W117F): as the sequence (P22303 32-614 Y372A) above, with W86F, A341Y counted along it

G122A HuAChE = G122A HuAChE (Homo sapiens, UniProt P22303, G153A); assay: HuAChE inhibition kinetics; assay type: biochemical
Sequence of G122A HuAChE (P22303 32-614 G153A): as the sequence (P22303 32-614 Y372A) above, with G122A, A341Y counted along it

F295A/F338A/V407F HuAChE = F295A/F338A/V407F HuAChE (Homo sapiens, UniProt P22303, F326A/F369A/V438F); assay: HuAChE inhibition kinetics; assay type: biochemical; conditions: F295A/F338A/V407F HuAChE
Sequence of F295A/F338A/V407F HuAChE (P22303 32-614 F326A/F369A/V438F): as the sequence (P22303 32-614 Y372A) above, with F295A, F338A, A341Y, V407F counted along it

W286A HuAChE = W286A HuAChE (Homo sapiens, UniProt P22303, W317A); assay: HuAChE inhibition kinetics; assay type: biochemical; conditions: W286A HuAChE
Sequence of W286A HuAChE (P22303 32-614 W317A): as the sequence (P22303 32-614 Y372A) above, with W286A, A341Y counted along it

Wild Type HuAChE = Wild Type HuAChE (Homo sapiens, UniProt P22303); assay: HuAChE inhibition kinetics; assay type: biochemical; conditions: Wild Type HuAChE
Sequence of Wild Type HuAChE (P22303 32-614): as the sequence (P22303 32-614 Y372A) above, with A341Y counted along it

F295L/F297V/Y337A HuAChE = F295L/F297V/Y337A HuAChE (Homo sapiens, UniProt P22303, F326L/F328V/Y368A); assay: HuAChE inhibition kinetics; assay type: biochemical; conditions: F295L/F297V/Y337A HuAChE
Sequence of F295L/F297V/Y337A HuAChE (P22303 32-614 F326L/F328V/Y368A): as the sequence (P22303 32-614 Y372A) above, with F295L, F297V, Y337A, A341Y counted along it

E202Q HuAChE = E202Q HuAChE (Homo sapiens, UniProt P22303, E233Q); assay: HuAChE inhibition kinetics; assay type: biochemical; conditions: E202Q HuAChE
Sequence of E202Q HuAChE (P22303 32-614 E233Q): as the sequence (P22303 32-614 Y372A) above, with E202Q, A341Y counted along it

Y133F HuAChE = Y133F HuAChE (Homo sapiens, UniProt P22303, Y164F); assay: HuAChE inhibition kinetics; assay type: biochemical; conditions: Y133F HuAChE
Sequence of Y133F HuAChE (P22303 32-614 Y164F): as the sequence (P22303 32-614 Y372A) above, with Y133F, A341Y counted along it

F295A/F338A HuAChE = F295A/F338A HuAChE (Homo sapiens, UniProt P22303, F326A/F369A); assay: HuAChE inhibition kinetics; assay type: biochemical; conditions: F295A/F338A HuAChE
Sequence of F295A/F338A HuAChE (P22303 32-614 F326A/F369A): as the sequence (P22303 32-614 Y372A) above, with F295A, F338A, A341Y counted along it

Y337A HuAChE = Y337A HuAChE (Homo sapiens, UniProt P22303, Y368A); assay: HuAChE inhibition kinetics; assay type: biochemical; conditions: Y337A HuAChE
Sequence of Y337A HuAChE (P22303 32-614 Y368A): as the sequence (P22303 32-614 Y372A) above, with Y337A, A341Y counted along it

F297A HuAChE = F297A HuAChE (Homo sapiens, UniProt P22303, F328A); assay: HuAChE inhibition kinetics; assay type: biochemical; conditions: F297A HuAChE
Sequence of F297A HuAChE (P22303 32-614 F328A): as the sequence (P22303 32-614 Y372A) above, with F297A, A341Y counted along it

D74N HuAChE [2] = target: T1, D74N HuAChE (Homo sapiens, UniProt P22303, D105N); assay: HuAChE inhibition kinetics; assay type: biochemical; conditions: D74N HuAChE
T1 sequence (P22303 32-614 D105N): as the sequence (P22303 32-614 Y372A) above, with D74N, A341Y counted along it

Y337F HuAChE = Y337F HuAChE (Homo sapiens, UniProt P22303, Y368F); assay: HuAChE inhibition kinetics; assay type: biochemical; conditions: Y337F HuAChE
Sequence of Y337F HuAChE (P22303 32-614 Y368F): as the sequence (P22303 32-614 Y372A) above, with Y337F, A341Y counted along it

E450A HuAChE = E450A HuAChE (Homo sapiens, UniProt P22303, E481A); assay: HuAChE inhibition kinetics; assay type: biochemical; conditions: E450A HuAChE
Sequence of E450A HuAChE (P22303 32-614 E481A): as the sequence (P22303 32-614 Y372A) above, with A341Y, E450A counted along it

E202A HuAChE = E202A HuAChE (Homo sapiens, UniProt P22303, E233A); assay: HuAChE inhibition kinetics; assay type: biochemical; conditions: E202A HuAChE
Sequence of E202A HuAChE (P22303 32-614 E233A): as the sequence (P22303 32-614 Y372A) above, with E202A, A341Y counted along it

D74N HuAChE [3] = target: T1, D74N HuAChE; conditions: D74N HuAChE vs wild type; cited from earlier work

Sequence of Y133A HuAChE (P22303 32-614 Y164A): as the sequence (P22303 32-614 Y372A) above, with Y133A, A341Y counted along it
Sequence of F338A HuAChE (P22303 32-614 F369A): as the sequence (P22303 32-614 Y372A) above, with F338A, A341Y counted along it

## CN(C)C(=O)Oc1ccc[n+](C)c1 [Pyridostigmine, pyridostigmine bromide]
Y133A HuAChE
  k2, carbamylation rate constant: 1.80 ± 0.3 min⁻¹
F338A HuAChE
  k2, carbamylation rate constant: 1.20 ± 0.4 min⁻¹
Y341A HuAChE
  k2, carbamylation rate constant: 1.0 ± 0.1 min⁻¹
Y72N/Y124Q/W286A HuAChE
  k2, carbamylation rate constant: 0.80 ± 0.07 min⁻¹
  ki, bimolecular rate constant of carbamylation: 9.3±0.8 × 10^−4 M^−1min^−1
[1]
  k2, carbamylation rate constant: 0.40 ± 0.1 min⁻¹
  ki, bimolecular rate constant of carbamylation: 0.6±0.1 × 10^−4 M^−1min^−1
W86A HuAChE
  k2, carbamylation rate constant: 0.68 ± 0.2 min⁻¹
F295A HuAChE
  k2, carbamylation rate constant: 0.17 ± 0.02 min⁻¹
HuBChE-Wild Type
  k2, carbamylation rate constant: 0.30 ± 0.03 min⁻¹
Y124A HuAChE
  k2, carbamylation rate constant: 0.1 ± 0.01 min⁻¹
  ki, bimolecular rate constant of carbamylation: 13.8±0.4 × 10^−4 M^−1min^−1
W86F HuAChE
  k2, carbamylation rate constant: 0.65 ± 0.2 min⁻¹
G122A HuAChE
  k2, carbamylation rate constant: 0.12 ± 0.02 min⁻¹
  ki, bimolecular rate constant of carbamylation: 0.76±0.2 × 10^−4 M^−1min^−1
F295A/F338A/V407F HuAChE
  k2, carbamylation rate constant: 0.5 ± 0.15 min⁻¹
W286A HuAChE
  k2, carbamylation rate constant: 1.8 ± 0.5 min⁻¹
  ki, bimolecular rate constant of carbamylation: 14.0±0.6 × 10^−4 M^−1min^−1
Wild Type HuAChE
  k2, carbamylation rate constant: 0.77 ± 0.3 min⁻¹
F295L/F297V/Y337A HuAChE
  k2, carbamylation rate constant: 0.55 ± 0.09 min⁻¹
E202Q HuAChE
  k2, carbamylation rate constant: 1.00 ± 0.2 min⁻¹
Y133F HuAChE
  k2, carbamylation rate constant: 0.20 ± 0.04 min⁻¹
F295A/F338A HuAChE
  k2, carbamylation rate constant: 0.5 ± 0.4 min⁻¹
  ki, bimolecular rate constant of carbamylation: 0.8±0.5 × 10^−4 M^−1min^−1
Y337A HuAChE
  k2, carbamylation rate constant: 0.80 ± 0.1 min⁻¹
F297A HuAChE
  k2, carbamylation rate constant: 0.64 ± 0.1 min⁻¹
D74N HuAChE [2]
  k2, carbamylation rate constant: 1.0 ± 0.1 min⁻¹
Y337F HuAChE
  k2, carbamylation rate constant: 0.68 ± 0.2 min⁻¹
E450A HuAChE
  k2, carbamylation rate constant: 0.15 ± 0.02 min⁻¹
E202A HuAChE
  k2, carbamylation rate constant: 0.20 ± 0.05 min⁻¹

## CC[N+](C)(C)c1cccc(O)c1 [edrophonium]
D74N HuAChE [3]
  increase of the dissociation constant: 5 fold
